Molecular target: ATP-dependent translocase ABCB1 (Homo sapiens, UniProt P08183)
Test: TP_TRANSPORTER: transepithelial transport (basal to apical) in MDR1-expressing LLC-PK1 cells
Type: functional, cell-based
Conditions: pig

Chain of ATP-dependent translocase ABCB1 (P08183 whole entry): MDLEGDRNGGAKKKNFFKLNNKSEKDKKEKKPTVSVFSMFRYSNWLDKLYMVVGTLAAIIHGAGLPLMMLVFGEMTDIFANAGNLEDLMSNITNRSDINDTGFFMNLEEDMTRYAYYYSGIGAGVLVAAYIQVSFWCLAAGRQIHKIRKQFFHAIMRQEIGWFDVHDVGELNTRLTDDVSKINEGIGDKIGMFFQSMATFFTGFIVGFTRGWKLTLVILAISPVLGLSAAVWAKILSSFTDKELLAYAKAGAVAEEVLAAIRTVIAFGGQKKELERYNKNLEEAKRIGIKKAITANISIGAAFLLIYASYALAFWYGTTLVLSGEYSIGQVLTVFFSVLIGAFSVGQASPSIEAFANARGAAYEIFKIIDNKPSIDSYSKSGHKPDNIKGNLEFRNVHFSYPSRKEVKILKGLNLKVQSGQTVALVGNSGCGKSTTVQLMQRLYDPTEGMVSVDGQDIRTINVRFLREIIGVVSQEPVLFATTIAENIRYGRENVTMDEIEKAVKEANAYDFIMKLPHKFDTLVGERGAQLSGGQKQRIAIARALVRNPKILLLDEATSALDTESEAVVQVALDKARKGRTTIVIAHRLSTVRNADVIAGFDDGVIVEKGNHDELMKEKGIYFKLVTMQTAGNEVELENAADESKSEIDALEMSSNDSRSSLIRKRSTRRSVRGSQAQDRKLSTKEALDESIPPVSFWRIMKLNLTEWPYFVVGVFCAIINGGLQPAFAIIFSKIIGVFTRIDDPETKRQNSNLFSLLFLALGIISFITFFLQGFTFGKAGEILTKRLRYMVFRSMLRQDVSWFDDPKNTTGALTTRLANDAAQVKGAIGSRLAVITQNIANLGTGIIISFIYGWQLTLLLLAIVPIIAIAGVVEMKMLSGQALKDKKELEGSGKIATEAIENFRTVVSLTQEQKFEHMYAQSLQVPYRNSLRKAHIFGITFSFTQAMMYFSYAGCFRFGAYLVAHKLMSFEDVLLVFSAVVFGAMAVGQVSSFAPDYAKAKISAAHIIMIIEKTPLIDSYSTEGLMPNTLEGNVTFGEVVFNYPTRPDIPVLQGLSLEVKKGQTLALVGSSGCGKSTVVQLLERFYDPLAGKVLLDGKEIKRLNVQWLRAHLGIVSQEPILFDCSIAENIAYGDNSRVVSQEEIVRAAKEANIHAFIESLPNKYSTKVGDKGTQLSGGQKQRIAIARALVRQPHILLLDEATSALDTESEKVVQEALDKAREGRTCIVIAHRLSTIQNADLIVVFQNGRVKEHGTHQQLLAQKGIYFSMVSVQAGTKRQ

SMILES | Activity
CC(=O)O[C@H]1C[C@H](O[C@H]2[C@@H](O)C[C@H](O[C@H]3[C@@H](O)C[C@H](O[C@H]4CC[C@@]5(C)[C@H](CC[C@@H]6[C@@H]5C[C@@H](O)[C@]5(C)[C@@H](C7=CC(=O)OC7)CC[C@]65O)C4)O[C@@H]3C)O[C@@H]2C)O[C@H](C)[C@H]1O [ACETYLDIGOXIN] | substrate [+]
C[C@H]1O[C@@H](O[C@H]2[C@@H](O)C[C@H](O[C@H]3[C@@H](O)C[C@H](O[C@H]4CC[C@@]5(C)[C@H](CC[C@@H]6[C@@H]5CC[C@]5(C)[C@@H](C7=CC(=O)OC7)CC[C@]65O)C4)O[C@@H]3C)O[C@@H]2C)C[C@H](O)[C@@H]1O [DIGITOXIN] | substrate [+]
O=C(O)CCC(=O)C(=O)O [ALPHA-KETOGLUTARIC ACID] | substrate [+]

— ChEMBL document CHEMBL2074460, “P-glycoprotein-mediated transport of digitoxin, alpha-methyldigoxin and beta-acetyldigoxin” (Naunyn Schmiedebergs Arch Pharmacol, 2001)
